The source made the active and inactive calls. No cut-off for these calls is given here.
Tests used:
BMDM [1] = assay: Induction of DNA damage in mouse BMDM cells assessed as DNA fragmentation at 1 uM measured after 24 hrs by fluorescence microscope based comet assay; assay type: functional, cell-based
Cytochrome P450 1A2 = Cytochrome P450 1A2 (Homo sapiens, UniProt P05177); assay: Inhibition of CYP1A2 in human liver microsomes using phenacetin as substrate preincubated for 5 mins followed by NADPH addition and measured after 30 to 60 mins by LC-MS/MS analysis; assay type: ADME, Microsome
Sequence of Cytochrome P450 1A2 (P05177 whole entry): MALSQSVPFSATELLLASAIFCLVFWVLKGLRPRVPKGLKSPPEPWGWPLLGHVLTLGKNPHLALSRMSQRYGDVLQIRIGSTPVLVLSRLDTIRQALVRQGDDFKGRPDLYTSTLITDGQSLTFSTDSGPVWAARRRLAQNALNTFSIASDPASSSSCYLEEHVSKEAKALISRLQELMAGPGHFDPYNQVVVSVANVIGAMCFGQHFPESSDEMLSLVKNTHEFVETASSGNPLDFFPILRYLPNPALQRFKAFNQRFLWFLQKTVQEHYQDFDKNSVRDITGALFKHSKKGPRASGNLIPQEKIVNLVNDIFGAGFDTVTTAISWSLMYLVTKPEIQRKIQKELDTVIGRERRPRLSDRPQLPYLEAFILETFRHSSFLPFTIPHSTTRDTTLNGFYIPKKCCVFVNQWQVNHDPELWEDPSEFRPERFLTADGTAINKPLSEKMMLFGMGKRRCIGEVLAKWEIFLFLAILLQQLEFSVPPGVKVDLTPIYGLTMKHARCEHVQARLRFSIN

Cytochrome P450 2B6 = Cytochrome P450 2B6 (Homo sapiens, UniProt P20813); assay: Inhibition of CYP2B6 in human liver microsomes preincubated for 5 mins followed by NADPH addition and measured after 30 to 60 mins by LC-MS/MS analysis; assay type: ADME, Microsome
Sequence of Cytochrome P450 2B6 (P20813 whole entry): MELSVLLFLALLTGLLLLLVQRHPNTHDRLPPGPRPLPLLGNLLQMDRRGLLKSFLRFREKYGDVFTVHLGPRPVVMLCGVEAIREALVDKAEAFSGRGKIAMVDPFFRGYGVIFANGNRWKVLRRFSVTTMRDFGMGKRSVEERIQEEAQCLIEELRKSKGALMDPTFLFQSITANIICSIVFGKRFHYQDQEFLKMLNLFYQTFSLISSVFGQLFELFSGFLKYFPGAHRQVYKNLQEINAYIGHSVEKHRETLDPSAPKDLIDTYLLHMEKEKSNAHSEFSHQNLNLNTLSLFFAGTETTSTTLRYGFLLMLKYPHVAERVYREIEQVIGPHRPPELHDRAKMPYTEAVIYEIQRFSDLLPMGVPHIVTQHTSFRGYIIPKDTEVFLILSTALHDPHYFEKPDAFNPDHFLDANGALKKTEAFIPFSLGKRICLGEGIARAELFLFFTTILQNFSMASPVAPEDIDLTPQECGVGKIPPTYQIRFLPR

Cytochrome P450 3A4 = Cytochrome P450 3A4 (Homo sapiens, UniProt P08684); assay: Inhibition of CYP3A4 in human liver microsomes using midazolam as substrate preincubated for 5 mins followed by NADPH addition and measured after 30 to 60 mins by LC-MS/MS analysis; assay type: ADME, Microsome
[2] = target: Alpha-1A adrenergic receptor (Homo sapiens) (UniProt P35348); assay: Inhibition of alpha 1A adrenergic receptor (unknown origin) at 1 uM relative to control
Sequence of Alpha-1A adrenergic receptor (Homo sapiens) (P35348 whole entry): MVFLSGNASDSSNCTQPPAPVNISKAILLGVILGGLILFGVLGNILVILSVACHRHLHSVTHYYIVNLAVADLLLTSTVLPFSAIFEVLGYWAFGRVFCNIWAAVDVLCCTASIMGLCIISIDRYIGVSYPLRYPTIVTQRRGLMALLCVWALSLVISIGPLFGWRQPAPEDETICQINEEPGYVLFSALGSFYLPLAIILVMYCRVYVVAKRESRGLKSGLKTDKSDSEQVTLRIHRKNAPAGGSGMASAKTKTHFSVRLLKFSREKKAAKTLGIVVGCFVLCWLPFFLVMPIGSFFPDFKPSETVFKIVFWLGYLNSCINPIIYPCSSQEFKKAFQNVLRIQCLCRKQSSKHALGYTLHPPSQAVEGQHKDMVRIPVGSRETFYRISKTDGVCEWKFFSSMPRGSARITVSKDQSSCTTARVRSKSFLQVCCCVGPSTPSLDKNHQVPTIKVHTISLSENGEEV

[3] = target: 3',5'-cyclic-AMP phosphodiesterase 4D (Homo sapiens) (UniProt Q08499); assay: Inhibition of PDE4D2 (unknown origin) at 1 uM relative to control
Sequence of 3',5'-cyclic-AMP phosphodiesterase 4D (Homo sapiens) (Q08499 whole entry): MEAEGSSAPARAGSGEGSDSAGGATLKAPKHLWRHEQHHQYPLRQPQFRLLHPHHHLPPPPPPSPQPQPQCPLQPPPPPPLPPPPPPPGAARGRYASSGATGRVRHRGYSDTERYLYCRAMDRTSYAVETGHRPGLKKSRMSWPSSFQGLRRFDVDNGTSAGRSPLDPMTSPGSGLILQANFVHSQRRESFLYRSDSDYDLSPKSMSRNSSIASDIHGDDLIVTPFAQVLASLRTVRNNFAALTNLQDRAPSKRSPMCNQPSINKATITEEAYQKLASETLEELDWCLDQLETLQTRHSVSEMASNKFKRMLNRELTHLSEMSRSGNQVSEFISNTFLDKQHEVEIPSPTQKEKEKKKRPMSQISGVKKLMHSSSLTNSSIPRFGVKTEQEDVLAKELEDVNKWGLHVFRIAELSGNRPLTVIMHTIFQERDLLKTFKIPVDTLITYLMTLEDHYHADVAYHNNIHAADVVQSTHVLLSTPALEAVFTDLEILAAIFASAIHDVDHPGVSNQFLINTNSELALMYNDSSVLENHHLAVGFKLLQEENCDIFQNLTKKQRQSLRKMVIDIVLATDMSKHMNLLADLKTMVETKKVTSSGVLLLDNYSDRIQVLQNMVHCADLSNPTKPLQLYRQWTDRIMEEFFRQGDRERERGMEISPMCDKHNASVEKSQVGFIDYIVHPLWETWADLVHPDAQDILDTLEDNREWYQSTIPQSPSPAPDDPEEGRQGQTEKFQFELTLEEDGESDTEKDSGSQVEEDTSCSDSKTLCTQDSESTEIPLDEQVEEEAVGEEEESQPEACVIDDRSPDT

[4] = target: Adenosine receptor A2a (Homo sapiens) (UniProt P29274); assay: Inhibition of adenosine A2A receptor (unknown origin) at 1 uM relative to control
[5] = target: Androgen receptor (Homo sapiens) (UniProt P10275); assay: Inhibition of Androgen receptor (unknown origin) at 1 uM relative to control
Sequence of Androgen receptor (Homo sapiens) (P10275 whole entry): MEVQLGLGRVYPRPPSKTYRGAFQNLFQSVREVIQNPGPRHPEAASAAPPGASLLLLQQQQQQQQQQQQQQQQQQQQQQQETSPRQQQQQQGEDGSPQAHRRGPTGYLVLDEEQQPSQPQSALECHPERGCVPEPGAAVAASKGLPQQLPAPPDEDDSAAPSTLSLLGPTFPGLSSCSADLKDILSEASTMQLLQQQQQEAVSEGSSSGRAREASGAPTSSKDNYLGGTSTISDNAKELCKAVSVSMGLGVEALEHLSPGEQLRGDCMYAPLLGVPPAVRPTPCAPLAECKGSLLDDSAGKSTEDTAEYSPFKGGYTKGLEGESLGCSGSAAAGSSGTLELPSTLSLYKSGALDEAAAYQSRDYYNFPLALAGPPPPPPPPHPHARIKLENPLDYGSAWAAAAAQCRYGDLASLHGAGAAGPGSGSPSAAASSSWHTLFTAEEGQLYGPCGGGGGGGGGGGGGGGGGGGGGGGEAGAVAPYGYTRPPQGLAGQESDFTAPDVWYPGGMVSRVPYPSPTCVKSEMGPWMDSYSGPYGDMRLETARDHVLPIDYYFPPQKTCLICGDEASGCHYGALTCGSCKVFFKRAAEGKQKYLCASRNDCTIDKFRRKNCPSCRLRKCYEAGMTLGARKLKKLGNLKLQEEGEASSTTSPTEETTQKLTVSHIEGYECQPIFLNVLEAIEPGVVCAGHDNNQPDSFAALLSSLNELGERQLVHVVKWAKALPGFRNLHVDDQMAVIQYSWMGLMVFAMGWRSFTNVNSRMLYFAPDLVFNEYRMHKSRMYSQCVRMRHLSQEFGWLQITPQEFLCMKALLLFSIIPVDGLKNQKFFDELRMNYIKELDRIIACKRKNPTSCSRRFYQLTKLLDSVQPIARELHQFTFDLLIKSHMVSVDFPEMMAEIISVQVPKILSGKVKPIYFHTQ

[6] = target: Transient receptor potential cation channel subfamily V member 1 (Homo sapiens) (UniProt Q8NER1); assay: Inhibition of TRPV1 (unknown origin) at 1 uM relative to control
Sequence of Transient receptor potential cation channel subfamily V member 1 (Homo sapiens) (Q8NER1 whole entry): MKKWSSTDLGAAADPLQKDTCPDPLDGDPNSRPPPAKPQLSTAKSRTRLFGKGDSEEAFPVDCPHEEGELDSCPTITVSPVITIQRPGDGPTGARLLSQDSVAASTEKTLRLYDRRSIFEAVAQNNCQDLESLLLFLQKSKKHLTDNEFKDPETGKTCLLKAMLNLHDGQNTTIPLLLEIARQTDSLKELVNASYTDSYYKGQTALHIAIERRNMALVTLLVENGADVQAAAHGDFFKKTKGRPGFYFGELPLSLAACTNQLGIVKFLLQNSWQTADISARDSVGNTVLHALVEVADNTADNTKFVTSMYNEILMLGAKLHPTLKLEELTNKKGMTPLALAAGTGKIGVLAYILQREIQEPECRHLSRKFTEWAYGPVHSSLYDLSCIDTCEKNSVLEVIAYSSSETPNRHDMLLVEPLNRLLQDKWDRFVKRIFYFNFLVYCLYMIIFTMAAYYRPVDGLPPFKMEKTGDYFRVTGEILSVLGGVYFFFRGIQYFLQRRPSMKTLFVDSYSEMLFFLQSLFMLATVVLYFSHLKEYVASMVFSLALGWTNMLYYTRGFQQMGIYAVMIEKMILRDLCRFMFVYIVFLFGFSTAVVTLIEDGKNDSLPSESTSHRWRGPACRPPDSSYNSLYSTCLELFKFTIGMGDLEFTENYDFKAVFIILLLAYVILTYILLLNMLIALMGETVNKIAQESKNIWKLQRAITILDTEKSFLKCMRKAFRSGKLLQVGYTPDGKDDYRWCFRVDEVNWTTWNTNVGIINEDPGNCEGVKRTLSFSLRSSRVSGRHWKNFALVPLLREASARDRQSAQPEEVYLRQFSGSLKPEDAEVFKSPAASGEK

[7] = target: Alpha-1A adrenergic receptor (Homo sapiens) (UniProt P35348); assay: Activation of alpha 1A adrenergic receptor (unknown origin) at 1 uM relative to control
[8] = target: Substance-P receptor (Homo sapiens) (UniProt P25103); assay: Activation of NK1 receptor (unknown origin) at 1 uM relative to control
Sequence of Substance-P receptor (Homo sapiens) (P25103 whole entry): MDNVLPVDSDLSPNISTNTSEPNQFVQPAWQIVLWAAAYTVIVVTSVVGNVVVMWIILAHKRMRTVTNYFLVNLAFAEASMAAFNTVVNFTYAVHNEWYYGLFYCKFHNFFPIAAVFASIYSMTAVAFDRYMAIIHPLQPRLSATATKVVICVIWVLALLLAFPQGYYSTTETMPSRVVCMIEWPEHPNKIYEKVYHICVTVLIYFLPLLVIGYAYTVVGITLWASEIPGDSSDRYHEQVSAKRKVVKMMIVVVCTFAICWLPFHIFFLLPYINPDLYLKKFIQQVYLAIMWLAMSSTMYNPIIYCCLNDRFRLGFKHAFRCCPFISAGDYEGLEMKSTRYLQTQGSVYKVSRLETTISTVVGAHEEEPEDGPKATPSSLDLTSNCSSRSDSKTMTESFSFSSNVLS

Homo sapiens = species on record: Homo sapiens; assay: Activation of GlyRalpha1beta (unknown origin) at 1 uM relative to control
[9] = target: P2X purinoceptor 3 (Homo sapiens) (UniProt P56373); assay: Activation of P2X3 (unknown origin) at 1 uM relative to control
Sequence of P2X purinoceptor 3 (Homo sapiens) (P56373 whole entry): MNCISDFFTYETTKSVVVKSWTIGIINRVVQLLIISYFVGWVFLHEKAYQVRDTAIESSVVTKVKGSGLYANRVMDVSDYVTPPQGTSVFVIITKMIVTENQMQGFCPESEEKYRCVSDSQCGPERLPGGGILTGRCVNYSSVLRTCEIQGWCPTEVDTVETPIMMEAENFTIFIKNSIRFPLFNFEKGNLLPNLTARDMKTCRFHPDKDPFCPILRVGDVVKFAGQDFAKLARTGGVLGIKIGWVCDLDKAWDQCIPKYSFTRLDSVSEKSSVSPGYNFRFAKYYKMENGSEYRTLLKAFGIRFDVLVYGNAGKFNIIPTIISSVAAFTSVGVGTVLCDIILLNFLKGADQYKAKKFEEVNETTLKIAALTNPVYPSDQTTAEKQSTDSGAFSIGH

[10] = target: Sodium-dependent serotonin transporter (Homo sapiens) (UniProt P31645); assay: Activation of 5-HTT (unknown origin) at 1 uM relative to control
[11] = target: Prostaglandin G/H synthase 2 (Homo sapiens) (UniProt P35354); assay: Activation of COX2 (unknown origin) at 1 uM relative to control
[12] = Cytotoxicity against human PBMC cells at 0.08 to 0.63 uM measured after 24 hrs by CCK-8 method; assay type: toxicity, cell-based; details: dose 0.08-0.63 µM
THP-1 [13] = assay: Cytotoxicity against human THP-1 cells at 4 uM measured after 24 hrs by CCK-8 method; assay type: functional, cell-based
BMDM [14] = assay: Cytotoxicity against mouse BMDM cells at 4 uM measured after 24 hrs by CCK-8 method; assay type: toxicity, cell-based
[15] = Cytotoxicity against human PBMC cells at 1.25 uM measured after 24 hrs by CCK-8 method; assay type: toxicity, cell-based
[16] = MRT (0 to t) in male C57BL/6 mouse at 30 mg/kg, ip measured upto 1440 mins by LC-MS/MS analysis; assay type: ADME, organism-based; details: in vivo
[17] = Tmax in male C57BL/6 mouse at 30 mg/kg, ip measured upto 1440 mins by LC-MS/MS analysis; assay type: ADME, organism-based; details: in vivo
[18] = Half life in male C57BL/6 mouse at 30 mg/kg, ip measured upto 1440 mins by LC-MS/MS analysis; assay type: ADME, organism-based; details: in vivo
[19] = Drug distribution in C57BL/6 mouse colon at 30 mg/kg, ip measured after 2 hrs by LC-MS/MS analysis; assay type: ADME, organism-based; details: read-out: Drug uptake
[20] = Drug distribution in C57BL/6 mouse plasma at 30 mg/kg, ip measured after 24 hrs by LC-MS/MS analysis; assay type: ADME, organism-based
BMDM [21] = assay: Inhibition of pyroptosis in LPS/nigericin induced […] cells assessed as reduction in red fluorescence production preincubated with LPS for 3 hrs followed by compound addition for 40 mins and further stimulated with nigericin for 40 mins by PI staining based inverted microscopy based analysis; assay type: functional, cell-based; details: dose 0.25-1 µM, time 80.0 min
THP-1 [22] = assay: Inhibition of pyroptosis in LPS/nigericin induced PMA-differentiated human THP-1 cells assessed as reduction in LDH release at […] preincubated with LPS for 3 hrs followed by compound addition for 40 mins and further stimulated with nigericin for 40 mins by LDH assay; assay type: functional, cell-based; details: dose lower 0.25 µM, time 80.0 min
THP-1 [23] = assay: Binding affinity to NLRP3deltaLRR mutant in PMA- differentiated human THP-1 cells assessed as protection of pronase-mediated protein degradation at 100 to 1000 uM pretreated with LPS for 3 hrs followed by incubation with compound for 50 mins followed by pronase digestion for 30 mins by DARTS analysis; assay type: cell-based; details: dose 100-1000 µM, time 80.0 min
THP-1 [24] = assay: Binding affinity to NLRP3deltaLRR mutant in PMA- differentiated human THP-1 cells assessed as increase in thermal stability of protein at 1 uM pretreated with LPS for 3 hrs followed by compound addition at 45 to 63 degC for 2 mins by CETSA analysis; assay type: cell-based
Mus musculus [25] = assay: Anti-colitis activity against DSS-induced ulcerative colitis C57BL/6 mouse model assessed as reduction in colon length shortening at 15 to 30 mg/kg, ip administered daily and measured upto 10 days; assay type: functional, organism-based; details: dose 15-30 mg/kg, time <= 10.0 day
Mus musculus [26] = assay: Anti-colitis activity against DSS-induced ulcerative colitis C57BL/6 mouse model assessed as alleviation of thickening of inherent base layer in colon at 15 to 30 mg/kg, ip administered daily and measured after 10 days by H and E staining based analysis; assay type: functional, organism-based; details: dose 15-30 mg/kg, time 10.0 day
Mus musculus [27] = assay: Anti-colitis activity against DSS-induced ulcerative colitis C57BL/6 mouse model assessed as alleviation of goblet cell depletion at 15 to 30 mg/kg, ip administered daily and measured after 10 days by H and E staining based analysis; assay type: functional, organism-based; details: dose 15-30 mg/kg, time 10.0 day
Mus musculus [28] = assay: Anti-colitis activity against DSS-induced ulcerative colitis C57BL/6 mouse model assessed as alleviation of mucosal damage in colon at 15 to 30 mg/kg, ip administered daily and measured after 10 days by H and E staining based analysis; assay type: functional, organism-based; details: dose 15-30 mg/kg, time 10.0 day
Mus musculus [29] = assay: Anti-colitis activity against DSS-induced ulcerative colitis C57BL/6 mouse model assessed as alleviation of grave ulcer formation in colon at 15 to 30 mg/kg, ip administered daily and measured after 10 days by H and E staining based analysis; assay type: functional, organism-based; details: dose 15-30 mg/kg, time 10.0 day
Mus musculus [30] = assay: Anti-colitis activity against DSS-induced ulcerative colitis C57BL/6 mouse model assessed as reduction in IL-1 beta level at 15 to 30 mg/kg, ip by ELISA method; assay type: functional, organism-based; details: dose 15-30 mg/kg
THP-1 [31] = assay: Inhibition of NLRP3-NEK7 interaction in LPS/nigericin stimulated human THP-1 cells at 1 uM preincubated with LPS for 3 hrs followed by compound addition for 40 mins and further stimulated with nigericin for 40 mins by immunoprecipitation analysis; assay type: cell-based; details: time 80.0 min

IC50 (Cytochrome P450 1A2): > 100 µM
IC50 (Cytochrome P450 2B6): > 100 µM
IC50 (Cytochrome P450 3A4): > 100 µM
inhibition [2]: < 50%
inhibition [3]: < 50%
inhibition [4]: < 50%
inhibition [5]: < 50%
inhibition [6]: < 50%
Activity [7]: < 50%
Activity [8]: < 50%
Activity (Homo sapiens): < 50%
Activity [9]: < 50%
Activity [10]: < 50%
Activity [11]: < 50%
MRT last at 24 h [16]: 11 h
Tmax [17]: 0.78 h
half-life [18]: 6.83 h
concentration at 2 h [19]: 4610 ng/g
concentration at 24 h [20]: 1.65 ng/mL
SMILES: C=C1C(=O)O[C@@H]2C[C@@]3(C)CC[C@@H](OC(=O)c4cnc(Cl)cc4Cl)C(=C)[C@@H]3C[C@H]12
Activity (BMDM [1]): Active
Activity [12]: Non-Toxic
Activity (THP-1 [13]): Active
Activity (BMDM [14]): Toxic
Activity [15]: Toxic
inhibition (BMDM [21]): Active
inhibition (THP-1 [22]): Active
Activity (THP-1 [23]): Active
Activity (THP-1 [24]): Active
Activity (Mus musculus [25]): Active
Activity (Mus musculus [26]): Active
Activity (Mus musculus [27]): Active
Activity (Mus musculus [28]): Active
Activity (Mus musculus [29]): Active
Activity (Mus musculus [30]): Active
inhibition (THP-1 [31]): Active
